What all share (type): biochemical
The target of experiment [1] is T1, human full-length EL (endothelial lipase) (Homo sapiens, UniProt Q9Y5X9).
T1 construct: We have cloned the human full-length EL, LPL, HL and PL; made in house; host or cells: HEK-293, transient transfection; cell extracts used
T1 sequence (Q9Y5X9 21-500): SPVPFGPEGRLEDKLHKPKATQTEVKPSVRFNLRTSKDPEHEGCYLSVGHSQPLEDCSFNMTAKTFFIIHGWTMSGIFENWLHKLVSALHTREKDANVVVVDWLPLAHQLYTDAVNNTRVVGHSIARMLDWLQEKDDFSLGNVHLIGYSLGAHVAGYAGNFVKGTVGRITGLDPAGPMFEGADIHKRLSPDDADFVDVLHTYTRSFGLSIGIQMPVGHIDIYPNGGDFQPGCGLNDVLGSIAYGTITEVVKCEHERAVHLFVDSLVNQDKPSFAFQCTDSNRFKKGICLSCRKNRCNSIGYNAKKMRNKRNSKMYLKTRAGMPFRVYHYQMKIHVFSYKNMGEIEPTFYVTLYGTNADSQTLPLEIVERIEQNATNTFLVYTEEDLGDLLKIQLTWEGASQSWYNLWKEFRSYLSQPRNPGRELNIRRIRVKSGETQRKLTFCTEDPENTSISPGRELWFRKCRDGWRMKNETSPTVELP
Kind of experiment: EL inhibition assay using cell extracts of HEK293/EL transfected cells. The following applies: compound 0.001-200 μM, means of three experiments. How it is done:
(§1) Preparation of constructs: We have cloned the human full-length EL, LPL, HL and PL. The cDNA encoding the EL, LPL, HL and PL sequence was cloned by PCR and subcloned into a mammalian expression vector containing the cytomegalovirus promoter-enhancer. The constructs were confirmed by sequence analysis.
(§2) Expression of EL, LPL, HL and PL in mammalian cells: The above constructs were used to transfect HEK-293 cells. The cells were seeded into T75 plates in a DMEM solution containing 10% Fetal Bovine Serum media and incubated overnight at 37° C. Cells were transiently transfected with various cDNA constructs using the Lipofectamine-LTX as described by the manufacturer (Invitrogen). After transfection, cells were then incubated for an additional 48 hours at 37° C. before being analyzed for expression. After 48 hours of incubation, following transfection, cells were collected for analysis by western blots for the expression of EL, LPL, HL and PL.
EL screening assay: We developed and implemented two assays (a) in assay one the HDL-C functions as a substrate for the assay. This assay measures the rate of HDL hydrolysis by EL that yields free fatty acids, which are then coupled through acyl-CoA synthetase, acyl-CoA oxidase and horseradish peroxidase to produce the fluorescent species, resorufin; (b) in assay two PED-A1, a novel fluorogenic phospholipase A1-selective substrate was used for EL measurements. […] Assay one was used for initial screening, while assay two was used for secondary screening and EL kinetics.
Characterization of the Hits: A library of compounds that modified both the urea and sulfonamide substituents on the 5-methyl furan were synthesized. The library was extensively analyzed for EL potency, and then the data was utilized to further optimize the compounds. Seven compounds were selected for potency, kinetic and selectivity confirmation.
In order to determine the Ki value, we used variable concentrations of the compound and variable substrate concentrations.

Experiment [2] has as its target T2, human full-length PL (pancreatic lipase) (Homo sapiens, UniProt P16233).
T2 construct: We have cloned the human full-length EL, LPL, HL and PL; made in house; host or cells: HEK-293, transient transfection
T2 sequence (P16233 17-465): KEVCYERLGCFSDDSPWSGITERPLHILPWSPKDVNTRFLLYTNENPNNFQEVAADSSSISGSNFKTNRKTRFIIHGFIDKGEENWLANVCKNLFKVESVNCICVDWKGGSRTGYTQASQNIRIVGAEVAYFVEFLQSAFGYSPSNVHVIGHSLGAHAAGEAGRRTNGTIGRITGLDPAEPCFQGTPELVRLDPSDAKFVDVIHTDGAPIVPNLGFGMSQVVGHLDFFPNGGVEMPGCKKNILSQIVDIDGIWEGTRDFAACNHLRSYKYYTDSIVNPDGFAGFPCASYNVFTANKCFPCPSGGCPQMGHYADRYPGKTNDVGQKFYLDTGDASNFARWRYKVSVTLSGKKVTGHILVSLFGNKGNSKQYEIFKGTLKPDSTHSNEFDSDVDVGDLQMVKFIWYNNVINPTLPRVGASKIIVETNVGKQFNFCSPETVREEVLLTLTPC
As to the kind of experiment: PL selectivity assay (phospholipase kit, resorufinoleate substrate). The following applies: even at 200 uM compound concentration. The protocol:
as §1, §2
(§3) LPL, PL and HL selectivity assays: For measuring LPL, PL and HL activity, we used the commercially available phospholipase kit (MGT). The activity of the substrate, resorufinoleate is quite good for both phospholipase A1 and phospholipase A2, and therefore is ideal for LPL, PL and HL. Since the substrate is quite general for other lipases such as triacylglycerol lipases or lipoprotein lipases, we utilized our recombinant system and cell specific expression system to achieve the desired specificity. The LPL, PL and HL enzyme activity measurements were conducted using a 96-well microtiter plate. All appropriate controls were implemented.
(§4) Experiments were also performed to determine the specificity of our best compounds against the most closely related homologues, LPL, PL and HL.

In experiment [3] the target is T3, human full-length LPL (lipoprotein lipase) (Homo sapiens, UniProt P06858).
T3 construct: We have cloned the human full-length EL, LPL, HL and PL; made in house; host or cells: HEK-293, transient transfection
T3 sequence (P06858 28-475): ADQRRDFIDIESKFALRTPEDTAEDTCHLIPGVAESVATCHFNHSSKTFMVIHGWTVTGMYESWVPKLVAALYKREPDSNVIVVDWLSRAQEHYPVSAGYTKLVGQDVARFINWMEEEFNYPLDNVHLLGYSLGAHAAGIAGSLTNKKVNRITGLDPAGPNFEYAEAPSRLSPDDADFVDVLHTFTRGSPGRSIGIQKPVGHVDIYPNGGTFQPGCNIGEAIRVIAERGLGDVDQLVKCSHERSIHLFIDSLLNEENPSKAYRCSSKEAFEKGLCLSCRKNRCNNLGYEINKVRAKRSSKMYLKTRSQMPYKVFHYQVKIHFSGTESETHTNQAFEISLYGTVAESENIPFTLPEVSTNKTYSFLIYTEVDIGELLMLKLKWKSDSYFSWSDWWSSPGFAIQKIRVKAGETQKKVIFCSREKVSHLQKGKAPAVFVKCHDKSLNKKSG
As to the kind of experiment: LPL selectivity assay (phospholipase kit, resorufinoleate substrate). The following applies: even at 200 uM compound concentration. The protocol:
as §1, §2, §3, §4

Experiment [4] deals with T4, human full-length HL (hepatic lipase) (Homo sapiens, UniProt P11150).
T4 construct: We have cloned the human full-length EL, LPL, HL and PL; made in house; host or cells: HEK-293, transient transfection
T4 sequence (P11150 23-499): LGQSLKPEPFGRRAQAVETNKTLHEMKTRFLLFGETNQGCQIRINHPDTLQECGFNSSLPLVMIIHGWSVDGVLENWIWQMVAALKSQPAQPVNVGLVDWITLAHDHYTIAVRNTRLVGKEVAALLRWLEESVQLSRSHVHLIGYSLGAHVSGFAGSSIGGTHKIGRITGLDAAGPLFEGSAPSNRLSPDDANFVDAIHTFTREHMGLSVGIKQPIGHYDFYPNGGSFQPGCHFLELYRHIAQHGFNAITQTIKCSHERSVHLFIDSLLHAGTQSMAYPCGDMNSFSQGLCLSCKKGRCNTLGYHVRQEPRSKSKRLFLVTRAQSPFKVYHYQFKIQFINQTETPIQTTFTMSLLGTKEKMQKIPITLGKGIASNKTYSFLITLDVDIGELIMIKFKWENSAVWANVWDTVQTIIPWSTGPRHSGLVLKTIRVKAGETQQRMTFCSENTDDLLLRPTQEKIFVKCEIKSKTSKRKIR
As to the kind of experiment: HL selectivity assay (phospholipase kit, resorufinoleate substrate). Conditions: even at 200 uM compound concentration. The protocol: as §1, §2, §3, §4

In turn, `COC1CCN(S(=O)(=O)c2cc(NC(=O)NCc3ccccc3C(F)(F)F)c(C)o2)CC1` [SBC-140,460] showed an IC50 in experiment [1] of 19 nM. The “inhibition against PL activity” value in experiment [2] was “no inhibition”. The “inhibition against LPL activity” value in experiment [3] is recorded as “no inhibition”. Besides, the “inhibition against HL activity” value in experiment [4] is reported as “no inhibition”.

In the case of `Cc1ccccc1NC(=O)Nc1cc(S(=O)(=O)N2CCC(C(F)(F)F)CC2)oc1C` [SBC-140,466], in experiment [1], the IC50 was determined as 62 nM. In experiment [2], the “inhibition against PL activity” value is “no inhibition”. Moreover, the “inhibition against LPL activity” value in experiment [3] is on record as “no inhibition”. For the same compound, the “inhibition against HL activity” value in experiment [4] is “no inhibition”.

In the case of `Cc1oc(S(=O)(=O)N2CCC(C(F)(F)F)CC2)cc1NC(=O)NC(c1ccccc1)C(F)(F)F` (stereo not drawn) [SBC-140,472], in experiment [1], the 50% inhibitory concentration (IC50) turned out to be 79 nM. Also, the “inhibition against PL activity” value in experiment [2] was “no inhibition”. In addition, in experiment [3], the “inhibition against LPL activity” value is reported as “no inhibition”. Moreover, the “inhibition against HL activity” value in experiment [4] is listed as “no inhibition”.

For orientation: IC50 means the concentration that gives 50% inhibition. A lower IC50 goes with greater potency.

For the origin of these results see patent US10259804B2, “Anti-endothelial lipase compounds and methods of using the same in the treatment and/or prevention of cardiovascular diseases” (Shifa Biomedical Corporation, priority 2014, dated 2019).
